Entries after “also recorded” stand apart in the source; their conditions may differ.
Key:
[1] = Serum steroid concentrations (DHEA, 5-DIOL, 4-dione, testosterone, DHT) in ovariectomized rats, percutaneous administration; conditions: for concentration at 12 h: female, Sprague-Dawley, rat, in vivo; for serum levels of 5-DIOL, 5-DIOL versus DHEA: higher doses
Procedure: (§1) Intact animals are used as additional controls. The compounds were dissolved in 50% ethanol-50% propylene glycol and were administered in 0.1 ml on the dorsal skin area (2 cm×2 cm).
as §1, §1
Intact animals are used as additional controls. The compounds were dissolved in 50% ethanol-50% propylene glycol and were administered in 0.1 ml on the dorsal skin in area (2 cm×2 cm).
as §1
(§2) Male and female Sprague-Dawley rats [Crl: CD (SD)Br] weighing 225-250 g and 175-200 g, respectively, were obtained from Charles River Canada Inc. (St-Constant, Québec) and housed 2 per cage under a regimen of 14 h of light/da, (lights on at 07:15 h). Animals received Purina rat chow and water ad libitum. The animal studies were conducted to the “Guideline for Care and use of Experimental Animals”.
(§3) The animals were randomly divided into the indicated groups (8 and 10 rats per group for subcutaneous and topical administration, respectively). The animals of the appropriate groups were bilaterally ovariectomized (OVX) or orchiectomized (ORCH) under ether anesthesia while other rats were used as intact controls.
(§4) Seven days after starting treatment or approximately 12 h after last administration of the steroid, the animals were killed by decapitation. Blood samples were collected individually and serum was frozen at −20° C. until assayed. Uteri, ovaries, ventral prostates, dorsal prostates and seminal vesicles were immediately removed, freed from connective and adipose tissue, weighed, frozen in liquid nitrogen, and stored at −80° C. until assayed. Three rats from the indicated treatment groups were perfused with paraformaldehyde for in situ hybridization.
Steroid extraction, Ethanol (5 ml) was added to 1 ml serum and centrifugation at 2000×g was preformed for 15 min. The resulting pellet was further extracted with 2 ml ethanol and, after a second centrifugation at 2000×g for 15 min, the two supernatants were combined. The suspension was recentrifuged as described above and the supernatant was decanted and combined with the previously obtained ethanol extracts. The organic solvent was then evaporated under nitrogen and the residue was dissolved in 1 ml water: methanol (95:5, v/v). The C-18 columns (Bound-Elut, Amersham, Bucks, U.K.) were conditioned by passing consecutively 10 ml methanol, 10 ml water and 10 ml methanol/water (5:95, v/v). The extracts solubilized in water:methanol (95:5, v/v) were then deposited on the C-18 columns. After washing the columns with 2 ml water:methanol (95:5, v/v) and 5 ml methanol:water (50:50, v/v), 5 ml methanol:water (85:15, v/v) were added to eluate the non-conjugated steroids.
Chromatography on Sephadex LH-20 columns (Pharmacia, Uppsala, Sweden) was performed as previously described (Bélanger et al., 1988). In brief, steroids were solubilized in 1 ml isooctane/toluene/methanol (90:5:5, v:v:v) and deposited on the LH-20 columns. Fractions were collected and, after evaporation of the organic solvent, the concentration of the various steroids was determined by radioimmunoassay as previously described (Bélanger et al., 1980; Bélanger et al., 1988; Bélanger et al., 1990)
Radioimmunoassay data were analyzed using a program based on model II of Rodbard and Lewald (Rodbard, 1974). Plasma steroid levels are shown as the means±SEM of duplicate determinations of individual samples.

ovariectomized rats [2] = test: Uterine weight in ovariectomized rats, percutaneous administration twice daily for 7 days; type: in vivo, rat; conditions: for effect on uterine weight: percutaneous; for maximal reversal of the inhibitory effect of ovariectomy on uterine weight: 100 mg percutaneous twice daily, 7 days
Procedure: as §1, §2, §3, §4

orchiectomized rats [3] = test: Prostate and seminal vesicle weight in orchiectomized rats, subcutaneous administration; type: in vivo, rat; conditions: ORCH rats; for ED50 of maximal effect on prostate weight: half of each compound's own maximal effect
Procedure: (§5) Intact animals are used as additional controls.
as §5, §2, §3, §4

orchiectomized rats [4] = test: Ventral prostate and seminal vesicle weight in orchiectomized rats, percutaneous administration; type: in vivo, rat
Procedure: as §5, §5, §2, §3, §4

ovariectomized rats [5] = test: Serum LH concentration in ovariectomized rats, percutaneous administration; type: in vivo, rat; conditions: OVX rats
Procedure: as §1, §2, §3, §4
Serum LH was measured by double-antibody radioimmunoassay using rat hormones (LH-I-6 for iodination; LH-RP-2 as standard), and the rabbit antisera anti-r-LH-S-8, generously supplied by the National Pituitary Program, Baltimore, USA.
(§6) Radioimmunoassay data were analyzed using a program based on model II of Rodbard and Lewald (Rodbard, 1974). Plasma steroid levels are shown as the means±SEM of duplicate determinations of individual samples. In situ hybridization data were obtained as follows: for each prostatic tissue section, 20 randomly selected areas measuring 0.25 mm^2 (excluding acinar lumen) were analyzed using an Image Research Analysis System (Amersham, Arlington Heights, Ill.) and the mean optical density value for each section was calculated. Data are shown as the means±SEM of 20 readings from 6-8 prostatic sections originating from ventral 3 prostates. Statistical significance was measured according to the multiple range test of Duncan-Kramer (Kramer, 1956).

[6] = system: mRNAs encoding the C1 and C3 components of prostatic binding protein; test: PBP-C1 and PBP-C3 mRNA in the ventral prostate of orchiectomized rats, percutaneous administration; type: in vivo, rat; conditions: ORCH rats, depending on dosage
Procedure: as §5, §5, §2
The animals were randomly divided into the indicated groups (8 and 10 rats per group for subcutaneous and topical administration, respectively). […]
as §6, with “Plasma steroid levels are shown as the means±SEM of duplicate determinations of individual samples.” left out

ovariectomized rats [7] = test: Uterine weight in ovariectomized rats, subcutaneous administration twice daily for 7 days; type: in vivo, rat; conditions: for dose giving half-maximal stimulation of uterine weight: OVX rats
Procedure: as §5, §2, §3, §4

MCF-7 cells = conditions: cited from earlier work
[8] = system: human mammary tumor ZR-75-1 cells; conditions: concentrations within range of plasma levels in adult women; cited from earlier work

Structure (SMILES): C[C@]12CC[C@H](O)CC1=CC[C@@H]1[C@@H]2CC[C@]2(C)C(=O)CC[C@@H]12 [DHEA, dehydroepiandrosterone]
- concentration at 12 h ([1]; 3 mg): 1.74 ± 0.3 nM
- concentration at 12 h ([1]; 30 mg): 12.9 ± 3.69 nM
- concentration at 12 h ([1]; 100 mg): 39.2 ± 6.5 nM
- serum levels of 5-DIOL, 5-DIOL versus DHEA ([1]; percutaneous, OVX rats): no significant difference
- effect on uterine weight (ovariectomized rats [2]; 10 mg and 30 mg doses): comparable stimulation
- maximal reversal of the inhibitory effect of ovariectomy on uterine weight (ovariectomized rats [2]): 42%
- effect on uterine weight (ovariectomized rats [2]; 1 and 3 mg doses): no significant effect
- ED50, dose giving half-maximal reversal of the effect of orchiectomy on prostate weight (orchiectomized rats [3]): 1 mg
- half-maximal reversal of the effect of orchiectomy on seminal vesicle weight (dose) (orchiectomized rats [3]): ~2.5 mg
- ED50 of maximal effect on prostate weight (orchiectomized rats [3]): 2.5 mg
- reversal of the inhibitory effect of orchiectomy on ventral prostate weight (orchiectomized rats [4]; 10 mg dose, percutaneous): about 75%
- androgenic activity of DHEA relative to 5-DIOL where equivalent estrogenic effects are provided (orchiectomized rats [4]; percutaneous administration): two to three times more androgenic activity
- potency of DHEA relative to 5-DIOL in increasing seminal vesicle weight (orchiectomized rats [4]; percutaneous, ORCH rats): 1 fold
- inhibitory effect on serum LH (ovariectomized rats [5]; 10 mg dose): 61%
- inhibition of serum LH below the value in intact control animals (ovariectomized rats [5]; 30 mg dose): approximately 35%
- inhibition of serum LH below the value in intact control animals (ovariectomized rats [5]; 100 mg dose): ~70%
- stimulation of PBP-C1 and PBP-C3 mRNA levels by DHEA relative to 5-DIOL [6]: two to five times the effect; also recorded: two to five times more potent
- effect on uterine weight (ovariectomized rats [7]; 0.3 mg): no significant effect
- dose giving half-maximal stimulation of uterine weight (ovariectomized rats [7]): ~2.5 mg

Structure (SMILES): C[C@]12CC[C@H]3[C@@H](CC=C4C[C@@H](O)CC[C@@]43C)[C@@H]1CC[C@@H]2O [5-DIOL, androst-5-ene-3β,17β-diol]
- serum DHEA level ([1]; 3, 10, 30 and 100 mg dosages, percutaneous, OVX rats): relatively constant but low level
- levels of serum DHT ([1]; across the dosage range, percutaneous, OVX rats): substantially constant and relatively low
- serum levels of 5-DIOL, 5-DIOL versus DHEA ([1]; percutaneous, OVX rats): no significant difference
- serum levels of 5-DIOL compared with the other steroid ([1]; lower doses, 1 and 3 mg, percutaneous, OVX rats): higher levels
- effect on uterine weight (ovariectomized rats [2]; 10 mg and 30 mg doses): comparable stimulation
- maximal reversal of the inhibitory effect of ovariectomy on uterine weight (ovariectomized rats [2]): 52%
- effect on uterine weight (ovariectomized rats [2]; 1 and 3 mg doses): no significant effect
- ED50, dose giving half-maximal reversal of the effect of orchiectomy on prostate weight (orchiectomized rats [3]): 1 mg
- half-maximal reversal of the effect of orchiectomy on seminal vesicle weight (dose) (orchiectomized rats [3]): ~1.2 mg
- ED50 of maximal effect on prostate weight (orchiectomized rats [3]): 1.2 mg
- reversal of the effect of castration on ventral prostate weight (orchiectomized rats [4]; 15 mg dose, percutaneous): 50%
- serum LH (ovariectomized rats [5]; 10 mg dose): 0.86 ± 0.17 ng/mL
- inhibition of serum LH below the value in intact control animals (ovariectomized rats [5]; 30 mg dose): approximately 35%
- inhibition of serum LH below the value in intact control animals (ovariectomized rats [5]; 100 mg dose): ~70%
- estrogen-dependent synthesis of the 52 kDa glycoprotein (MCF-7 cells): increases
- cell proliferation [8]: enhances cell proliferation
- progesterone receptor levels [8]: enhances
- reversal of the effect of 1-week ovariectomy on uterine weight (ovariectomized rats [7]; 0.3 mg): 90%
- dose giving half-maximal stimulation of uterine weight (ovariectomized rats [7]): 0.5 mg

From patent US6995150B2, “Pharmaceutical compositions and uses for androst-5-ene-3β, 17β-diol” (Endorecherche, Inc., priority 1998, dated 2006)
